Reference: patent US20250249006A1, “TREATMENT” (Verona Pharma PLC, priority 2024, published 2025)

Experiments:
[1] = system: patients aged 40-80 years with moderate to severe COPD; test: Clinical studies, ensifentrine vs placebo: quality of life responders (SGRQ −4 units) in patients with low FEV1 response; format: in vivo; conditions: for Ensifentrine vs. Placebo Odds Ratio, SGRQ (−4 Unit) Responders / Odds in favor of a response, SGRQ (−4 Unit) Responders: logistic regression; for Ensifentrine vs. Placebo Odds Ratio, SGRQ (−4 Unit) Responders / Odds in favor of a response, SGRQ (−4 Unit) Responders / % SGRQ (−4 Unit) Responders / % responders, SGRQ (−4 Units) Responders / Ensifentrine v placebo Odds Ratio, SGRQ (−4 Units) Responders / Odds in favour of response, SGRQ (−4 Units) Responders: pooled mITT; for % SGRQ (−4 Unit) Responders / % responders, SGRQ (−4 Units) Responders: 3 mg BID nebuliser; for % responders, SGRQ (−4 Units) Responders / Ensifentrine v placebo Odds Ratio, SGRQ (−4 Units) Responders / Odds in favour of response, SGRQ (−4 Units) Responders: improvement in morning trough FEV1 less than 40 mL (table line prints <60 mL); for proportion of patients with a clinically important improvement in QoL: over 24 weeks
Procedure: (§1) Clinical studies were conducted to determine the efficacy of ensifentrine in treating COPD compared with placebo. Ensifentrine was administered by nebuliser at a dose of 3 mg twice daily (BID) for 24 weeks. The studies were multi-centre, randomized, double-blind, parallel-group, placebo-controlled trials.
(§2) The study population included patients aged 40-80 years with moderate to severe COPD (FEV1 30%-70% p.n., FEV1/forced vital capacity (FVC) ratio<0.7, with mMRC≥2). The randomization stratified (a) the use of stable background maintenance LAMA or LABA therapy use (approx. 50%. yes or no) and (b) cigarette smoking (current or former). Inhaled corticosteroid (ICS) maintenance therapy was permitted in up to 20% of patients under certain provisions.
(§3) The primary endpoint was change from baseline in average FEV1 area under the curve AUC0-12h post-dose at week 12. Also assessed were COPD symptoms and quality of life (QoL) in patients showing lower responses in terms of lung function, and in particular patients with: (i) improvement in average FEV1 AUC0-12h of less than 100 mL and (ii) improvement in morning trough FEV1 of less than 100 mL, less than 60 mL or less than 40 mL.
(§4) COPD symptoms were assessed using Evaluating Respiratory Symptoms (E-RS; EXACT-Respiratory Symptoms, The minimal clinically important difference (MCID) of the E-RS is a total score of −2 units. User Manual (Version 3.0), October 2014) and Transitional Dyspnea Index (TDI; Mahler et al, The MCID of the transition dyspnea index is a total score of one unit. COPD 2005, 2:99-103.) and QoL was assessed using the St. George's Respiratory Questionnaire (SGRQ; Jones, St. George's Respiratory Questionnaire: The MCID of the SGRQ is a total score of −4 units. COPD 2005, 2:75-79.).

[2] = system: patients aged 40-80 years with moderate to severe COPD; test: Clinical studies, ensifentrine vs placebo: COPD symptom responders (E-RS −2 units or TDI +1 unit) in patients with low FEV1 response; format: in vivo
Procedure: as §1, §2, §3, §4

[3] = FEV1 AUC0-12h <100 mL or morning trough FEV1 <100, <60 or <40 mL, overall conclusion
[4] = average FEV1 AUC0-12h <100 mL at Week 12, Week 6
[5] = average FEV1 AUC0-12h <100 mL at Week 12, Week 12
[6] = average FEV1 AUC0-12h <100 mL at Week 12, Week 24
[7] = morning trough FEV1 <60 mL at Week 6, Week 6
[8] = morning trough FEV1 <60 mL at Week 12, Week 12
[9] = morning trough FEV1 <60 mL at Week 24, Week 24
[10] = morning trough FEV1 <100 mL at Week 6, Week 6
[11] = morning trough FEV1 <100 mL at Week 12, Week 12
[12] = morning trough FEV1 <100 mL at Week 24, Week 24

SMILES: COc1cc2c(cc1OC)-c1c/c(=N\c3c(C)cc(C)cc3C)n(CCNC(N)=O)c(=O)n1CC2 [Ensifentrine, N-(2-{(2E)-9,10-dimethoxy-4-oxo-2-[(2,4,6-trimethylphenyl)imino]-6,7-dihydro-2H-pyrimido[6,1-a]isoquinolin-3(4H)-yl}ethyl)urea]
- subjects achieving QoL MCID [1, 3]: ~50%
- Ensifentrine vs. Placebo Odds Ratio, SGRQ (−4 Unit) Responders [1, 4]: 1.32
- Odds in favor of a response, SGRQ (−4 Unit) Responders [1, 4]: 1.10
- Ensifentrine vs. Placebo Odds Ratio, SGRQ (−4 Unit) Responders [1, 5]: 1.31
- Odds in favor of a response, SGRQ (−4 Unit) Responders [1, 5]: 0.92
- Ensifentrine vs. Placebo Odds Ratio, SGRQ (−4 Unit) Responders [1, 6]: 1.04
- Odds in favor of a response, SGRQ (−4 Unit) Responders [1, 6]: 0.95
- % SGRQ (−4 Unit) Responders ([1]; average FEV1 AUC0-12h <100 mL at Week 12, responders at Week 6): 45.4%
- % SGRQ (−4 Unit) Responders ([1]; average FEV1 AUC0-12h <100 mL at Week 12, responders at Week 12): 45.4%
- % SGRQ (−4 Unit) Responders ([1]; average FEV1 AUC0-12h <100 mL at Week 12, responders at Week 24): 48.5%
- % responders, SGRQ (−4 Units) Responders ([1]; Week 6): 42.6%
- Ensifentrine v placebo Odds Ratio, SGRQ (−4 Units) Responders ([1]; Week 6): 1.260
- Odds in favour of response, SGRQ (−4 Units) Responders ([1]; Week 6): 0.903
- % responders, SGRQ (−4 Units) Responders ([1]; Week 12): 44.7%
- Ensifentrine v placebo Odds Ratio, SGRQ (−4 Units) Responders ([1]; Week 12): 1.316
- Odds in favour of response, SGRQ (−4 Units) Responders ([1]; Week 12): 0.802
- % responders, SGRQ (−4 Units) Responders ([1]; Week 24): 48.7%
- Ensifentrine v placebo Odds Ratio, SGRQ (−4 Units) Responders ([1]; Week 24): 1.138
- Odds in favour of response, SGRQ (−4 Units) Responders ([1]; Week 24): 0.797
- proportion of patients with a clinically important improvement in QoL ([1]; increase in average FEV1 AUC0-12h less than 100 mL at Week 12): half
- proportion of patients with a clinically important improvement in QoL ([1]; increase in morning trough FEV1 less than 100 mL at Week 12): half
- Ensifentrine vs. Placebo Odds Ratio, SGRQ (−4 Unit) Responders [1, 7]: 1.25
- Odds in favor of a response, SGRQ (−4 Unit) Responders [1, 7]: 0.98
- % SGRQ (−4 Unit) Responders ([1]; morning trough FEV1 <60 mL at Week 6, responders at Week 6): 43.4%
- Ensifentrine vs. Placebo Odds Ratio, SGRQ (−4 Unit) Responders [1, 8]: 1.28
- Odds in favor of a response, SGRQ (−4 Unit) Responders [1, 8]: 0.82
- % SGRQ (−4 Unit) Responders ([1]; morning trough FEV1 <60 mL at Week 12, responders at Week 12): 45.1%
- Ensifentrine vs. Placebo Odds Ratio, SGRQ (−4 Unit) Responders [1, 9]: 1.07
- Odds in favor of a response, SGRQ (−4 Unit) Responders [1, 9]: 0.79
- % SGRQ (−4 Unit) Responders ([1]; morning trough FEV1 <60 mL at Week 24, responders at Week 24): 48.2%
- Ensifentrine vs. Placebo Odds Ratio, SGRQ (−4 Unit) Responders [1, 10]: 1.29
- Odds in favor of a response, SGRQ (−4 Unit) Responders [1, 10]: 1.09
- % SGRQ (−4 Unit) Responders ([1]; morning trough FEV1 <100 mL at Week 6, responders at Week 6): 45.0%
- Ensifentrine vs. Placebo Odds Ratio, SGRQ (−4 Unit) Responders [1, 11]: 1.34
- Odds in favor of a response, SGRQ (−4 Unit) Responders [1, 11]: 0.80
- % SGRQ (−4 Unit) Responders ([1]; morning trough FEV1 <100 mL at Week 12, responders at Week 12): 46.3%
- Ensifentrine vs. Placebo Odds Ratio, SGRQ (−4 Unit) Responders [1, 12]: 1.03
- Odds in favor of a response, SGRQ (−4 Unit) Responders [1, 12]: 0.77
- % SGRQ (−4 Unit) Responders ([1]; morning trough FEV1 <100 mL at Week 24, responders at Week 24): 48.1%
- subjects achieving symptom MCID [2, 3]: approximately 70%
- Ensifentrine vs. Placebo Odds Ratio, E-RS (−2 Unit) or TDI (+1 Unit) Responders ([2]; average FEV1 AUC0-12h <100 mL at Week 12, Week 6, logistic regression, pooled mITT): 1.42
